According to patent EP4703359A1 (Shanghai Simr Biotechnology Co., Ltd., priority 2023, dated 2024):

Target: T1, α2-GABAA receptor (Homo sapiens, UniProt P18507+P47869)
T1 construct: expressed in transfected cells
Experiment: Whole-cell patch-clamp electrophysiology, positive allosteric modulatory activity in α2-GABAAR-HEK293 cells
Assay type: cell-based
Conditions: compound 100 nM; GABA 0.10 to 0.11 µM (approximately EC7-8); normalized to reference compound CVL-865 (= 100%)
Text: The α subunit, β subunit, and γ subunit are indispensable for forming a fully functional GABAA receptor. In this example, HEK293 cells stably expressing α2-GABAA receptors (α2-GABAAR) were constructed and screened respectively via liposome transfection (Felgner, P.L., et al. Proceedings of the National Academy of Sciences, 1987, 84: 7413-7417). The α2-GABAAR-HEK293 cell model co-expresses the α2 subunit (protein sequence referenced under GenBank accession number: NM_000807.4), β3 subunit (protein sequence referenced under GenBank accession number: NM_000814.5), and γ2 subunit (protein sequence referenced under GenBank accession number: NM_000816.3).
The above cell lines were subcultured. α2-GABAAR-HEK293 cells were amplified for testing the affinity of compounds to the benzodiazepine (BZD) site of GABAA receptors. Some of the α2-GABAAR-HEK293 cells in suspension during subculturing were plated on glass slides pre-treated with Poly-D-Lysine for electrophysiological testing (method reference: Patent CN 107344936 A, paragraph 0586).
The positive modulatory activity of the test drug on the α2-GABAA receptor was assessed using electrophysiological methods. The specific approach is as follows:
With regards to the concentration of the compound, the final concentration of all compounds used in the screening was 100 nM. For cell lines expressing α2-GABAA receptors, the GABA concentration was 0.10 to 0.11 µM (approximately EC7-8). Electrophysiological experiments were conducted using the whole-cell patch-clamp technique, which can be referenced to the method reported in the literature (Nickolls, S. A., et al. *British Journal of Pharmacology*, 2018, 175: 708-725). The composition of the extracellular solution (ECS) for electrophysiology was as follows: 150 mM NaCl, 5 mM KCl, 2.5 mM CaCl2, 1 mM MgCl2, 10 mM HEPES, and 10 mM glucose (pH 7.4). The intracellular solution (ICS) for electrophysiology was formulated as follows: 140 mM CsCl, 11 mM EGTA, 10 mM HEPES, 2 mM CaCl2, 1 mM MgCl2, 4 mM MgATP, and 2 mM TEA (pH 7.3). GABA (γ-aminobutyric acid) powder was dissolved in pure water to prepare a stock solution, which was subsequently diluted in ECS. The compound was initially dissolved in dimethyl sulfoxide to prepare a 4 mM stock solution, followed by stepwise dilution into GABA-ECS at corresponding concentrations. All solutions were freshly prepared prior to electrophysiological testing.
Electrophysiological signals were acquired using an EPC 10 amplifier and PatchMaster software (HEKA) or an Axon 700B amplifier and Clampex software (AXON). The recording electrode was pulled from borosilicate glass, with an electrode resistance of 4 to 6 MΩ. Extracellular administration was performed using the ALA-VC-8PG™ system. A single independently growing cell was selected. After forming a tight seal between the glass electrode and the cell membrane, the membrane was ruptured to establish the whole-cell configuration. The cell membrane potential was clamped at -60 mV and recorded in Gap-free mode. During the test, extracellular fluid was first applied externally for approximately 20 seconds. After the baseline (Iprebaseline) was stabilized, the extracellular solution was switched to GABA-ECS. At this point, the current induced by GABA (Igaba) can be detected. After approximately 10 to 20 seconds, once the current had stabilized, the extracellular solution was switched to a mixture of the compound and GABA-ECS until the current induced by both the compound and GABA (Itreatment) could be detected. Finally, the solution was switched to extracellular fluid, and the recording was terminated after 20 to 40 seconds. Only cells with a stable baseline, an absolute control current magnitude (Igaba - Iprebaseline) greater than 40 pA, and a relatively stable current within 10 to 20 seconds were used for compound testing. […]

T1 sequence (P47869 29-451): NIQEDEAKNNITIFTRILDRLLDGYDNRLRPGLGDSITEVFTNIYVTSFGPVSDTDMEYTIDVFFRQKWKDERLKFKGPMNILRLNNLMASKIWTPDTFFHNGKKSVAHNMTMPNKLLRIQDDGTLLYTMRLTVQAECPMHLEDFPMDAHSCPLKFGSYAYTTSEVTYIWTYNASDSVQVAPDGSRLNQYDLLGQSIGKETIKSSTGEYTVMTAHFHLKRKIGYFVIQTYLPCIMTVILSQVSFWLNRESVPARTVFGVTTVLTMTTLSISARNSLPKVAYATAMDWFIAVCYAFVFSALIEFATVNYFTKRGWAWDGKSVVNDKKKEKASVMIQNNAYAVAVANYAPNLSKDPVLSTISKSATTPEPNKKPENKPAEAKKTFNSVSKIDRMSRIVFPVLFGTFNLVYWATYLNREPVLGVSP
T1 sequence (P18507 40-467 isoform P18507-1 limits assumed): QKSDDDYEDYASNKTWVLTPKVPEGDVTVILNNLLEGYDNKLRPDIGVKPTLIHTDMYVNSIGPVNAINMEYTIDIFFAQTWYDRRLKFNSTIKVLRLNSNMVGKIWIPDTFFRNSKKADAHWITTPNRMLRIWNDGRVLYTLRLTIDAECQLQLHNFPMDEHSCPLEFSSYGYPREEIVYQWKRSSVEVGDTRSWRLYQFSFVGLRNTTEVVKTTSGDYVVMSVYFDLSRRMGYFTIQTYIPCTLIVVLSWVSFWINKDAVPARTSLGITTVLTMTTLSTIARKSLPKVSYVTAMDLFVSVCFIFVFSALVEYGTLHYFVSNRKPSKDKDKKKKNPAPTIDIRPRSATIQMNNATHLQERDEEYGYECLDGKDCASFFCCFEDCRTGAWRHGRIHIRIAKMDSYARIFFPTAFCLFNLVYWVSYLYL
T1 sequence (P28472 26-473 partner): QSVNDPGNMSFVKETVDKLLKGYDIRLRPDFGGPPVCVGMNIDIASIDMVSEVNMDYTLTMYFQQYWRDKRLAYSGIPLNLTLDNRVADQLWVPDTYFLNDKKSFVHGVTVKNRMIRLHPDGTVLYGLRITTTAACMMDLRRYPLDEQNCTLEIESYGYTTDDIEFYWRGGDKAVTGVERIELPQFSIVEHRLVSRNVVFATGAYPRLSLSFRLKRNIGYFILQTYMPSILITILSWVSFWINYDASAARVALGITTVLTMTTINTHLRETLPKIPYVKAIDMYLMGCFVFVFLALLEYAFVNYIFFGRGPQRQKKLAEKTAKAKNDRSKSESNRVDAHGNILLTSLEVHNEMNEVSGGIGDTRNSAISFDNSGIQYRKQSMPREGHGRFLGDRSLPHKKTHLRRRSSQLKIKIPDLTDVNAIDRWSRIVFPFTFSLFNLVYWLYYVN

Structure (SMILES) | α2-GABAAR Positive allosteric modulatory activity
COc1cccc(F)c1-c1c(F)ccn2c(N)c(C(=O)NCC=C(F)F)nc12 [Example 131, 3-Amino-N-(3,3-difluoroallyl)-7-fluoro-8-(2-fluoro-6-methoxyphenyl)imidazo[1,2-a]pyridine-2-carboxamide] | 82%
CCCNC(=O)c1nc2c(CC(C)C)c(F)ccn2c1N [Example 119] | 33%
CCCNC(=O)c1nc2c(-c3cc(F)c4ocnc4c3)cccn2c1N [Example 99] | 31%

Same assay, conditions: compound 100 nM; GABA 0.10 to 0.11 µM (approximately EC7-8); normalized to reference compound CVL-865 (= 100%); read-out: α2-GABAAR Positive allosteric modulatory activity

Structure (SMILES) | Emax at 0.1 µM
COCCNC(=O)c1nc2c(-c3c(F)cccc3OC)cccn2c1N [Example 24, 3-Amino-8-(2-fluoro-6-methoxyphenyl)-N-(2-methoxyethyl)imidazo[1,2-a]pyridine-2-carboxamide] | 39%
CCCNC(=O)c1nc2c(-c3c(F)cccc3OC(F)(F)F)cccn2c1N [Example 75, 3-Amino-8-(2-fluoro-6-(trifluoromethoxy)phenyl)-N-propylimidazo[1,2-a]pyridine-2-carboxamide] | 101%
CCCCNC(=O)c1nc2c(-c3c(F)cccc3OC)c(F)ccn2c1N [Example 124, 3-Amino-N-butyl-7-fluoro-8-(2-fluoro-6-methoxyphenyl)imidazo[1,2-a]pyridine-2-carboxamide] | 90%
COc1cccc(F)c1-c1cccn2c(N)c(C(=O)Nc3cnn(C)c3)nc12 [Example 15, 3-Amino-8-(2-fluoro-6-methoxyphenyl)-N-(1-methyl-1H-pyrazol-4-yl)imidazo[1,2-a]pyridine-2-carboxamide] | 61%
C#CCNC(=O)c1nc2c(-c3c(F)cccc3OC)cccn2c1N [Example 31, N-Propargyl-3-amino-8-(2-fluoro-6-methoxyphenyl)imidazo[1,2-a]pyridine-2-carboxamide] | 26%
COc1cccc(F)c1-c1cccn2c(N)c(C(=O)NCCc3ccccc3)nc12 [Example 21, 3-Amino-8-(2-fluoro-6-methoxyphenyl)-N-phenethylimidazo[1,2-a]pyridine-2-carboxamide] | 43%
CCn1cnc2c(-c3ccc(F)c(-c4ccc(S(=O)(=O)CC)cc4OC)c3)cnnc21 [CVL-865, reference compound] | 100%
CCCNC(=O)c1nc2c(-c3c(C#N)cccc3OC)cccn2c1N [Example 73, 3-Amino-8-(2-cyano-6-methoxyphenyl)-N-propylimidazo[1,2-a]pyridine-2-carboxamide] | 64%
CCCNC(=O)c1nc2c(-c3cncc(C#N)c3)cccn2c1N [Example 88, 3-Amino-8-(5-cyanopyridin-3-yl)-N-propylimidazo[1,2-a]pyridine-2-carboxamide] | 63%
CCNC(=O)c1nc2c(-c3c(F)cccc3OC)cccn2c1N [Example 2, 3-Amino-8-(2-fluoro-6-methoxyphenyl)-N-ethylimidazo[1,2-a]pyridine-2-carboxamide] | 35%
CCCNC(=O)c1nc2c(-c3c(OC)ccc4ccc(F)cc34)cccn2c1N [Example 107, 3-Amino-8-(7-fluoro-2-methoxynaphthalen-1-yl)-N-propylimidazo[1,2-a]pyridine-2-carboxamide] | 90%
CCCNC(=O)c1nc2c(-c3cccc(-c4ccnnc4)c3)cccn2c1N [Example 44] | 31%
CCCNC(=O)c1nc2c(-c3c(F)cccc3COC)cccn2c1N [Example 65, 3-Amino-8-(2-fluoro-6-(methoxymethyl)phenyl)-N-propylimidazo[1,2-a]pyridine-2-carboxamide] | 36%
CCCNC(=O)c1nc2c(-c3cccc(N4CCOC4=O)c3)cccn2c1N [Example 41, 3-Amino-8-(3-(2-oxooxazolidin-3-yl)phenyl)-N-propylimidazo[1,2-a]pyridine-2-carboxamide] | 30%
CCCNC(=O)c1nc2c(-c3c(F)ccc(Cl)c3OC)cccn2c1N [Example 80, 3-Amino-8-(2-fluoro-6-methoxyphenyl-5-chloro)-N-propylimidazo[1,2-a]pyridine-2-carboxamide] | 77%
CCCNC(=O)c1nc2c(-c3cc4cnn(C)c4cc3OC)cccn2c1N [Example 95, 3-Amino-8-(6-methoxy-1-methyl-1H-indazol-5-yl)-N-propylimidazo[1,2-a]pyridine-2-carboxamide] | 27%
CCCNC(=O)c1nc2c(-c3cc4cccnc4cc3OC)cccn2c1N [Example 97, 3-Amino-8-(7-methoxyquinolin-6-yl)-N-propylimidazo[1,2-a]pyridine-2-carboxamide] | 52%
CCCNC(=O)c1nc2c(-c3ccnc(C#N)c3)cccn2c1N [Example 89, 3-Amino-8-(2-cyanopyridin-4-yl)-N-propylimidazo[1,2-a]pyridine-2-carboxamide] | 44%
[2H]c1ccn2c(N)c(C(=O)NCCC)nc2c1-c1c(F)cccc1OC [Example 150, 3-Amino-8-(2-fluoro-6-methoxyphenyl)-N-propylimidazo[1,2-a]pyridine-7-deuterio-2-carboxamide] | 85%

Second part, the compound after the results:

Emax at 0.1 µM | Structure (SMILES)
52% | CCCNC(=O)c1nc2c(-c3cc4cn(C)nc4cc3OC)cccn2c1N [Example 96, 3-Amino-8-(6-methoxy-2-methyl-2H-indazol-5-yl)-N-propylimidazo[1,2-a]pyridine-2-carboxamide]
50% | CCCNC(=O)c1nc2c(-c3cccc(/C(C)=N/OC)c3)cccn2c1N [Example 38, (E)-3-Amino-8-(3-(1-(methoxyimino)ethyl)phenyl)-N-propylimidazo[1,2-a]pyridine-2-carboxamide]
48% | CCCNC(=O)c1nc2c(-c3c(F)cccc3OC)c(C)ccn2c1N [Example 132, 3-Amino-8-(2-fluoro-6-methoxyphenyl)-7-methyl-N-propylimidazo[1,2-a]pyridine-2-carboxamide]
51% | CCCNC(=O)c1nc2c(-c3c(C#N)cccc3OC)c(F)ccn2c1N [Example 118, 3-Amino-8-(2-cyano-6-methoxyphenyl)-7-fluoro-N-propylimidazo[1,2-a]pyridine-2-carboxamide]
62% | CCCNC(=O)c1nc2c(-c3cc4oc(=O)n(C)c4cc3OC)cccn2c1N [Example 93, 3-Amino-8-(5-methoxy-3-methyl-2-oxo-2,3-dihydrobenzo[d]oxazol-6-yl)-N-propylimidazo[1,2-a]pyridine-2-carboxamide]
51% | CCCNC(=O)c1nc2c(-c3cn4ccnc4cc3OC)cccn2c1N [Example 94, 3'-Amino-7-methoxy-N-propyl-[6,8'-diimidazo[1,2-a]pyridine]-2'-carboxamide]
88% | CCCNC(=O)c1nc2c(-c3cc(OC)nnc3OC)c(F)ccn2c1N [Example 117, 3-Amino-8-(3,6-dimethoxypyridazin-4-yl)-7-fluoro-N-propylimidazo[1,2-a]pyridine-2-carboxamide]
44% | CCCNC(=O)c1nc2c(-c3cnoc3C)cccn2c1N [Example 141, 3-Amino-8-(5-methyl-1,2-oxazol-4-yl)-N-propylimidazo[1,2-a]pyridine-2-carboxamide]
53% | CCCNC(=O)c1nc2c(-c3cccnc3F)c(F)ccn2c1N [Example 112, 3-Amino-7-fluoro-8-(2-fluoropyridin-3-yl)-N-propylimidazo[1,2-a]pyridine-2-carboxamide]
99% | CCCNC(=O)c1nc2c(-c3cccc(C#N)c3)c(F)ccn2c1N [Example 126, 3-Amino-8-(3-cyanophenyl)-7-fluoro-N-propylimidazo[1,2-a]pyridine-2-carboxamide]
